{
  "source": "patent US8901307B2",
  "about": "“Chemical compounds 251” (AstraZeneca AB, priority 2008, dated 2014)",
  "key": {"[1]": {"target": "T1, human His-PIM1 [2-313] (Homo sapiens, UniProt P11309)", "T1 construct": "purified human His-PIM1 [2-313] enzyme; His (N); purchased University of Dundee, Scotland; host or cells: baculovirus system", "T1 sequence (P11309 2-313)": "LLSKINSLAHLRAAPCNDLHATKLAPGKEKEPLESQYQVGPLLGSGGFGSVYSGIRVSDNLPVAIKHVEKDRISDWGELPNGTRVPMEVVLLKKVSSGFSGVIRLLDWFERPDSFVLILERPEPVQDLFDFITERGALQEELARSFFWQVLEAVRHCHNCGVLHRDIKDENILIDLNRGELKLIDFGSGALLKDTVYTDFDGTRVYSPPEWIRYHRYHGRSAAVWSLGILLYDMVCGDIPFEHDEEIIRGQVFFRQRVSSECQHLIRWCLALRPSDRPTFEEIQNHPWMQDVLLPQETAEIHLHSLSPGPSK", "test": "PIM1 in-vitro mobility shift assay (Caliper LC3000, FL-Ahx-Bad phosphorylation)", "assay_type": "biochemical", "conditions": "1.5 h; percent inhibition at 0.3 uM compound; read-out: PIM1 % I at 0.3 uM", "outline": "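Compound preincubated 20 min at 25 °C with 2.4 nM PIM1, 3.6 µM FL-Ahx-Bad peptide and 240 µM ATP (1.2× mix concentrations). Reaction started with 24 mM MgCl2 mix, run 90 min at 25 °C, EDTA-stopped. Phospho/unphospho peptide separated by microfluidic mobility shift; percent inhibition from ratiometric turnover.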"}, "[2]": {"target": "T2, human His-PIM2 [23-299] (Homo sapiens, UniProt Q9P1W9)", "T2 construct": "purified human His-PIM2 [23-299] enzyme; His (N); host or cells: E. coli", "T2 sequence (Q9P1W9 23-299)": "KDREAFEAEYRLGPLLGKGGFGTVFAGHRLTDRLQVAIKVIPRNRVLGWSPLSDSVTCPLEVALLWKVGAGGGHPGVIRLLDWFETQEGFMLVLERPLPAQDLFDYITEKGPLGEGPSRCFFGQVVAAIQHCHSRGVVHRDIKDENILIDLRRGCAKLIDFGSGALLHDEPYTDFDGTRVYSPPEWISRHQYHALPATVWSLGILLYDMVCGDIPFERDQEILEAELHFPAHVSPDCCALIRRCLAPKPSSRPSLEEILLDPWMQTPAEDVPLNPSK", "test": "PIM2 in-vitro mobility shift assay (Caliper LC3000, FL-Ahx-Bad phosphorylation)", "assay_type": "biochemical", "conditions": "1.5 h; percent inhibition at 0.3 uM compound; read-out: PIM2 % I at 0.3 uM"}},
  "data": [
    {"smiles": "Cn1ccnc1C(=O)N[C@H]1CCN(c2c(Cl)cccc2/C=C2\\SC(=O)NC2=O)C1", "note": "[Example 135, (S,Z)-N-(1-(2-chloro-6-((2,4-dioxothiazolidin-5-ylidene)methyl)phenyl)pyrrolidin-3-yl)-1-methyl-1H-imidazole-2-carboxamide]", "values": [
      {"measurement": "inhibition at 0.3 µM", "setting": "[1]", "value": 42.5, "unit": "%"},
      {"measurement": "inhibition at 0.3 µM", "setting": "[2]", "value": 10.8, "unit": "%"}
    ]},
    {"smiles": "COCC(=O)N[C@H]1CCN(c2c(Cl)cccc2/C=C2\\SC(=O)NC2=O)C1", "note": "[Example 136]", "values": [
      {"measurement": "inhibition at 0.3 µM", "setting": "[1]", "value": 82.8, "unit": "%"},
      {"measurement": "inhibition at 0.3 µM", "setting": "[2]", "value": 44.6, "unit": "%"}
    ]},
    {"smiles": "Cn1ccc(C(=O)N[C@H]2CCN(c3c(Cl)cccc3/C=C3\\SC(=O)NC3=O)C2)n1", "note": "[Example 137]", "values": [
      {"measurement": "inhibition at 0.3 µM", "setting": "[1]", "value": 55.1, "unit": "%"},
      {"measurement": "inhibition at 0.3 µM", "setting": "[2]", "value": 18.6, "unit": "%"}
    ]},
    {"smiles": "NC(=O)NCC(=O)N[C@H]1CCN(c2c(Cl)cccc2/C=C2\\SC(=O)NC2=O)C1", "note": "[Example 138]", "values": [
      {"measurement": "inhibition at 0.3 µM", "setting": "[1]", "value": 87.9, "unit": "%"},
      {"measurement": "inhibition at 0.3 µM", "setting": "[2]", "value": 63.2, "unit": "%"}
    ]},
    {"smiles": "O=C(Cc1cccnc1)N[C@H]1CCN(c2c(Cl)cccc2/C=C2\\SC(=O)NC2=O)C1", "note": "[Example 139]", "values": [
      {"measurement": "inhibition at 0.3 µM", "setting": "[1]", "value": 58.1, "unit": "%"},
      {"measurement": "inhibition at 0.3 µM", "setting": "[2]", "value": 15.1, "unit": "%"}
    ]},
    {"smiles": "O=C(Cc1ccncc1)N[C@H]1CCN(c2c(Cl)cccc2/C=C2\\SC(=O)NC2=O)C1", "note": "[Example 140]", "values": [
      {"measurement": "inhibition at 0.3 µM", "setting": "[1]", "value": 73.3, "unit": "%"},
      {"measurement": "inhibition at 0.3 µM", "setting": "[2]", "value": 52, "unit": "%"}
    ]},
    {"smiles": "Cn1cc(C(=O)N[C@H]2CCN(c3c(Cl)cccc3/C=C3\\SC(=O)NC3=O)C2)cn1", "note": "[Example 141]", "values": [
      {"measurement": "inhibition at 0.3 µM", "setting": "[1]", "value": 34.9, "unit": "%"},
      {"measurement": "inhibition at 0.3 µM", "setting": "[2]", "value": "< 5", "unit": "%"}
    ]},
    {"smiles": "O=C(CN1CC[S+]([O-])CC1)N[C@H]1CCN(c2c(Cl)cccc2/C=C2\\SC(=O)NC2=O)C1", "note": "[Example 142]", "values": [
      {"measurement": "inhibition at 0.3 µM", "setting": "[1]", "value": 86.1, "unit": "%"},
      {"measurement": "inhibition at 0.3 µM", "setting": "[2]", "value": 75.2, "unit": "%"}
    ]},
    {"smiles": "NS(=O)(=O)CCCC(=O)N[C@H]1CCN(c2c(Cl)cccc2/C=C2\\SC(=O)NC2=O)C1", "note": "[Example 143]", "values": [
      {"measurement": "inhibition at 0.3 µM", "setting": "[1]", "value": 85.9, "unit": "%"},
      {"measurement": "inhibition at 0.3 µM", "setting": "[2]", "value": 49.8, "unit": "%"}
    ]},
    {"smiles": "CN(C)C(=O)CCC(=O)N[C@H]1CCN(c2c(Cl)cccc2/C=C2\\SC(=O)NC2=O)C1", "note": "[Example 144]", "values": [
      {"measurement": "inhibition at 0.3 µM", "setting": "[1]", "value": 63.2, "unit": "%"},
      {"measurement": "inhibition at 0.3 µM", "setting": "[2]", "value": 21.2, "unit": "%"}
    ]},
    {"smiles": "CN(C)CC(=O)N[C@H]1CCN(c2c(Cl)cccc2/C=C2\\SC(=O)NC2=O)C1", "note": "[Example 145]", "values": [
      {"measurement": "inhibition at 0.3 µM", "setting": "[1]", "value": "> 95", "unit": "%"},
      {"measurement": "inhibition at 0.3 µM", "setting": "[2]", "value": 80.1, "unit": "%"}
    ]},
    {"smiles": "N#CCC(=O)N[C@H]1CCN(c2c(Cl)cccc2/C=C2\\SC(=O)NC2=O)C1", "note": "[Example 146]", "values": [
      {"measurement": "inhibition at 0.3 µM", "setting": "[1]", "value": 88.9, "unit": "%"},
      {"measurement": "inhibition at 0.3 µM", "setting": "[2]", "value": 48.5, "unit": "%"}
    ]},
    {"smiles": "CC(=O)NCC(=O)N[C@H]1CCN(c2c(Cl)cccc2/C=C2\\SC(=O)NC2=O)C1", "note": "[Example 147]", "values": [
      {"measurement": "inhibition at 0.3 µM", "setting": "[1]", "value": 74.3, "unit": "%"},
      {"measurement": "inhibition at 0.3 µM", "setting": "[2]", "value": 36.4, "unit": "%"}
    ]},
    {"smiles": "CCCN(CCC)[C@@H]1CCCN(c2c(Cl)cccc2/C=C2\\SC(=O)NC2=O)C1", "note": "[Example 148, (R,Z)-5-(3-chloro-2-(3-(dipropylamino)piperidin-1-yl)benzylidene)thiazolidine-2,4-dione]", "values": [
      {"measurement": "inhibition at 0.3 µM", "setting": "[1]", "value": 91.5, "unit": "%"},
      {"measurement": "inhibition at 0.3 µM", "setting": "[2]", "value": 60.8, "unit": "%"}
    ]},
    {"smiles": "O=C1NC(=O)/C(=C/c2cccc(Cl)c2N2CCC[C@@H](NCCC(F)(F)F)C2)S1", "note": "[Example 149]", "values": [
      {"measurement": "inhibition at 0.3 µM", "setting": "[1]", "value": "> 95", "unit": "%"},
      {"measurement": "inhibition at 0.3 µM", "setting": "[2]", "value": 75.4, "unit": "%"}
    ]},
    {"smiles": "COc1ccc(OCCCNC(C)C)c(C=C2SC(=O)NC2=O)c1", "note": "[Example 150]", "values": [
      {"measurement": "inhibition at 0.3 µM", "setting": "[1]", "value": 79.8, "unit": "%"},
      {"measurement": "inhibition at 0.3 µM", "setting": "[2]", "value": 31.7, "unit": "%"}
    ]},
    {"smiles": "CN(C)C1CCN(c2ccc(N)cc2/C=C2\\SC(=O)NC2=O)C1", "note": "(stereo not drawn) [Example 151, (Z)-5-(5-amino-2-(3-(dimethylamino)pyrrolidin-1-yl)benzylidene)thiazolidine-2,4-dione]", "values": [
      {"measurement": "inhibition at 0.3 µM", "setting": "[1]", "value": 31.5, "unit": "%"},
      {"measurement": "inhibition at 0.3 µM", "setting": "[2]", "value": 13.5, "unit": "%"}
    ]},
    {"smiles": "COc1cc(N)c(/C=C2\\SC(=O)NC2=O)cc1OC", "note": "[Example 152]", "values": [
      {"measurement": "inhibition at 0.3 µM", "setting": "[1]", "value": 10.8, "unit": "%"},
      {"measurement": "inhibition at 0.3 µM", "setting": "[2]", "value": 16.7, "unit": "%"}
    ]}
  ]
}
